Experimental data published in patent US11413286B2, “Producing astrocytes using small molecules” (CITY OF HOPE, priority 2016, dated 2022).

Test system: Oct4-luc
Assay: Oct4-luc reporter induction by OAC compounds
Type: cell-based
Set-up: key to Oct4-luc Activity: Active: Compounds that induce Oct4-luc 1.8-fold or more were classified as being “active”; Inactive: molecules that induce Oct4-luc less than 1.8-fold were indicated as being “inactive”
Conditions: not given

Structure (SMILES)	Oct4-luc fold Induction [fold]	Oct4-luc Activity
O=C(Nc1cc2cc[nH]c2cn1)c1ccccc1 [Compound C1]	4.72	Active
O=C(Nc1ccc2[nH]ccc2c1)c1ccccc1 [Compound C2]	4.15	Active
O=C(Nc1ccc2[nH]ccc2c1)c1ccc(F)cc1 [Compound C3]	3.84	Active
COc1ccc(C(=O)Nc2ccc3[nH]ccc3c2)cc1 [Compound C4]	5.46	Active
O=C(Nc1ccc2[nH]ccc2c1)c1ccc2nonc2c1 [Compound C5]	2.87	Active
COc1ccc(C(=O)Nc2ccc3[nH]ncc3c2)cc1 [Compound C6]	3.18	Active
O=C(Nc1ccc2[nH]ncc2c1)c1ccc(F)cc1 [Compound C7]	2.2	Active
O=C(Nc1ccc2[nH]ncc2c1)c1ccccc1 [Compound C8]	1.89	Active
CCOc1ccc(C(=O)Nc2ccc3[nH]ncc3c2)cc1 [Compound C9]	7.22	Active
CCc1ccc(C(=O)Nc2ccc3[nH]ncc3c2)cc1 [Compound C10]	4.51	Active
CC(C)c1ccc(C(=O)Nc2ccc3[nH]ncc3c2)cc1 [Compound C11]	3.78	Active
O=C(Nc1ccc2[nH]ncc2c1)c1ccc(Cl)cc1Cl [Compound C12]	3.6	Active
Cc1ccc(C(=O)Nc2ccc3[nH]ncc3c2)cc1C [Compound C13]	2.78	Active
CCOc1cccc(C(=O)Nc2ccc3[nH]ncc3c2)c1 [Compound C14]	2.67	Active
COc1cccc(C(=O)Nc2ccc3[nH]ncc3c2)c1 [Compound C15]	1.93	Active
O=C(Nc1ccc2[nH]ncc2c1)c1cccc(C(F)(F)F)c1 [Compound C21]	1.48	Inactive

Now from value to molecule, other results behind:

Oct4-luc fold Induction [fold]	Structure (SMILES)	Oct4-luc Activity
1	CN1CCC(c2c[nH]c3ccc(NC(=O)c4ccc(F)cc4)cc23)CC1 [Compound C16]	Inactive
1.1	Cc1ccc(C(=O)Nc2ccc3[nH]cc(C#N)c3c2)cc1 [Compound C17]	Inactive
1.27	O=C(Nc1ccc2[nH]ncc2c1)c1cccc(F)c1 [Compound C18]	Inactive
1.65	O=C(Nc1ccc2[nH]ncc2c1)c1cccc(Cl)c1 [Compound C19]	Inactive
1.48	O=C(Nc1ccc2[nH]ncc2c1)c1cccc(Br)c1 [Compound C20]	Inactive
1.5	O=C(Nc1ccc2[nH]ncc2c1)c1ccccc1F [Compound C22]	Inactive
1.72	O=C(Nc1ccc2[nH]ncc2c1)c1ccccc1Cl [Compound C23]	Inactive
1.46	O=C(Nc1ccc2[nH]ncc2c1)c1ccccc1Br [Compound C24]	Inactive
1.5	COc1ccccc1C(=O)Nc1ccc2[nH]ncc2c1 [Compound C25]	Inactive
1.22	CCOc1ccccc1C(=O)Nc1ccc2[nH]ncc2c1 [Compound C26]	Inactive
1.37	COc1cccc(C(=O)Nc2ccc3[nH]ncc3c2)c1OC [Compound C27]	Inactive
1.42	COc1ccc(C(=O)Nc2ccc3[nH]ncc3c2)c(OC)c1 [Compound C28]	Inactive
1.13	COc1ccc(C(=O)Nc2ccc3[nH]ncc3c2)cc1OC [Compound C29]	Inactive
1	CCOc1ccc(C(=O)Nc2ccc3[nH]ncc3c2)cc1OCC [Compound C30]	Inactive
1	O=C(Nc1ccc2[nH]nnc2c1)c1cccc(Cl)c1 [Compound C31]	Inactive
1.3	Cc1nc2cc(NC(=O)c3ccc([N+](=O)[O-])cc3)ccc2[nH]1 [Compound C32]	Inactive

Test system: reprogramming efficiency
Assay: Enhancement of reprogramming efficiency by OAC compounds
Type: cell-based
Conditions: not given

Structure (SMILES)	Enhance reprogramming efficiency
O=C(Nc1cc2cc[nH]c2cn1)c1ccccc1 [Compound C1]	YES
O=C(Nc1ccc2[nH]ccc2c1)c1ccccc1 [Compound C2]	YES
O=C(Nc1ccc2[nH]ccc2c1)c1ccc(F)cc1 [Compound C3]	YES

Test system: MEFs
Assay: Direct reprogramming of MEFs into astrocytes, GFAP/S100β immunostaining
Type: cell-based, mouse
Conditions: MEFs treated for 25 days, GFAP immunostaining
Protocol: Cell culture. MEFs and TTFs were derived from E13.5 embryos of Oct4-GFP transgenic (OG2) mice (Szabo et al., 2002), wild type or GFAP-GFP transgenic mice (Jackson Laboratory) (Zhuo et al., 1997). These cells were cultured in MEF medium containing DMEM, 10% FBS, 0.1 mM nonessential amino acids, and 2 mM L-glutamine. Mouse primary astrocytes were isolated from P1-2 pups following published protocol ([…] et al., 2013) and cultured in DMEM containing 10% FBS. Direct reprogramming mouse fibroblasts into astrocytes. MEFs were plated on 6-well or 12-well plates at a cell density of 3×10^3 cells/cm^2. Cells were cultured in MEF medium for 24 hr, then changed to mouse induced astrocyte medium (iAM) containing knock-out DMEM with 10% knock-out serum replacer, 10% FBS, 2 mM L-glutamine, 0.1 mM NEAA, 0.1 mM β-mercaptoethanol, and 100 ng/ml FGF. Cells were treated with compounds, including […] valproaic acid (VPA) (Stemgent), 3 μM CHIR99021(D&C chemicals), 10 μM SB-431542 (D&C chemicals), 10 μM Tranylcypromine (Stemgent), and 1 μM OAC1(Li et al., 2012) for 10 days, replated onto Matrigel-coated plates (BD Biosciences) and continued with compound treatment for another 15 days. Cells were then switched to mouse astrocyte medium (AM) containing DMEM with 10% heat-inactivated FBS. Immunocytochemistry. […]

Structure (SMILES)	induction of GFAP-positive cells from MEFs
Cc1cccc(-c2n[nH]cc2-c2ccc3ncccc3n2)n1 [Compound 6, 2-[5-(6-methylpyridin-2-yl)-1H-pyrazol-4-yl]-1,5-naphthyridine]	able to induce GFAP-positive cells
NC(=O)c1ccc(-c2nc(-c3ccc4c(c3)OCO4)c(-c3ccccn3)[nH]2)cc1 [S, 4-[4-(1,3-benzodioxol-5-yl)-5-pyridin-2-yl-1H-imidazol-2-yl]benzamide]	sufficient to induce GFAP-positive cells

Test system: induced astrocytes (iA) transfected with R239C AxD mutant GFAP-GFP
Assay: GFAP protein aggregates in induced astrocytes transfected with AxD mutant GFAP-GFP
Type: cell-based, mouse
Conditions: 100 μM ceftriaxone for 48 hr vs vehicle
Protocol: Transfection into induced astrocytes. Induced astrocytes (iA) were seeded at 1×10^5 cells per well in 12-well plates and incubated overnight. Then 2 μg plasmid of human wild type (WT) GFAP-GFP or AxD mutant GFAP-GFP with the R239C mutation (Bachetti et al., 2008) was transfected into iA using Lipofectamine® 2000 (Invitrogen). Forty eight hr after transfection, cells were assayed by immunostaining. For drug treatment, 24 hr after transfection, cells were treated with vehicle control or 100 μM ceftriaxone for 48 hr, followed by immunostaining.
AxD is a neurological disease with astrocyte dysfunction and is caused by genetic mutation of the GFAP gene (Messing et al., 2012). Expression of AxD mutant GFAP induces the expression of αB-crystallin, a small heat shock protein, and the formation of protein aggregates containing GFAP and αB-crystallin in astrocytes (Messing et al., 2012). The compound-induced astrocytes were tested to see if they could be used to model AxD. Plasmid expressing GFP fusion of the wild type (WT) or AxD mutant GFAP containing the R239C mutation, a hotspot mutation for AxD (Hagemann et al., 2006), were transfected into VCSTO-induced astrocytes. […] VCSTO-induced astrocytes transfected with the AxD mutant GFAP were treated with ceftriaxone.

Structure (SMILES)	GFAP protein aggregates in iA with AxD mutant GFAP
CO/N=C(\C(=O)N[C@@H]1C(=O)N2C(C(=O)O)=C(CSc3nc(=O)c(=O)[nH]n3C)CS[C@H]12)c1csc(N)n1 [ceftriaxone]	Substantial elimination of GFAP protein aggregates

Test system: MEF transduced with AxD GFAP-GFP
Assay: GFAP protein aggregates in MEF transduced with AxD mutant GFAP-GFP
Type: cell-based, mouse
Conditions: ceftriaxone vs vehicle
Protocol: FIGS. 12A-12E illustrate recapitulating GFAP protein aggregates in VCSTO-induced astrocytes (iA) transfected with an AxD mutant GFAP. […] The transfected cells are indicated by GFP. Nuclei Dapi staining (blue) is included in the merged images. Scale bar, 10 μm. […] Scale bar, 10 μm. […] The percentage of iA that contained the GFAP-GFP aggregates was reduced upon ceftriaxone treatment. n=400 to 500 cells. […] MEF transduced with the AxD GFAP-GFP were treated with ceftriaxone (+Cef) or vehicle control (−Cef). The percentage of MEF that contain the GFAP-GFP aggregates remained the same in the absence or presence of ceftriaxone treatment. n=600 to 900 cells. […] Error bars are sd of the mean, **p<0.01 by Student's t-test.
AxD is a neurological disease with astrocyte dysfunction and is caused by genetic mutation of the GFAP gene (Messing et al., 2012). Expression of AxD mutant GFAP induces the expression of αB-crystallin, a small heat shock protein, and the formation of protein aggregates containing GFAP and αB-crystallin in astrocytes (Messing et al., 2012). The compound-induced astrocytes were tested to see if they could be used to model AxD. Plasmid expressing GFP fusion of the wild type (WT) or AxD mutant GFAP containing the R239C mutation, a hotspot mutation for AxD (Hagemann et al., 2006), were transfected into VCSTO-induced astrocytes. […]

Structure (SMILES)	GFAP protein aggregates in MEF with AxD mutant GFAP
CO/N=C(\C(=O)N[C@@H]1C(=O)N2C(C(=O)O)=C(CSc3nc(=O)c(=O)[nH]n3C)CS[C@H]12)c1csc(N)n1 [ceftriaxone]	not responsive
